Laboratory results from US9763939B2, “Compositions and methods for treating mitochondrial diseases” (BIOVISTA, INC., priority 2012, dated 2017).
Read-outs that look alike come from different tables or passages of the source.

What was measured:
[1] = test system: C57BL/6 mice with MOG-induced EAE; test: MOG-induced Experimental Allergic Encephalomyelitis (MOG-EAE) mouse model, spinal cord histology; assay type: in vivo; conditions: spinal cord H&E histology day 35, pirlindole 30 mg/kg, dexamethasone positive control, dose not given; for Severity Score (infiltration by inflammatory cells): vehicle 2.85±0.66; for White Matter Damage (WMD) percentage (axonal degeneration): vehicle 74.2±26.1
Method: EXAMPLE. Evaluation of anti-inflammatory and direct protection mode of action. Compounds described herein are evaluated in a standard MOG-induced Experimental Allergic Encephalomyelitis (MOG-EAE) mouse model of neurodegeneration to determine whether the compounds protect neurons directly, or via an indirect anti-inflammatory mode of action. EAE is induced in C57BL/6 mice by the single subcutaneous injection of MOG emulsified in Complete Freund's Adjuvant (CFA) on study days 0 and 6, followed by intraperitoneal supplemental immunostimulation with Pertussis Toxin (PT) carried out once at the time of EAE induction and once again 48 hours later. Test animals are observed for 35 days. Histology samples are harvested from the spinal cords of the animals on day 35 and are stained with Hematoxylin & Eosin (H&E). Analysis of the samples comprises two parameters: a) The Severity Score which refers mainly to infiltration by inflammatory cells and b) White Matter Damage (WMD), which refers mainly to axonal degeneration.

[2] = test system: human primary fibroblasts from patients suffering from Friedreich's ataxia; test: cells; conditions: for statistically significant improvement in apoptosis compared to the BSO group: all tested doses
Method: (§1) EXAMPLE. […] Briefly, primary human fibroblasts from patients suffering from Friedreich's ataxia and LHON are lesioned with 100 μM BSO (LHON fibroblasts) or 250 μM BSO (FRDA fibroblasts) respectively, for 48 hours. Apoptosis, toxicity and viability rate of cells are determined using the ApoTox-Glo-Kit (Promega): the reagent for assessing viability and toxicity is applied 1:5 into treatment medium and incubated for 30 min at 37° C. Next, fluorescence is measured at the following wavelength sets: 400EX/505EM (viability) and 485EX/520EM (toxicity). In case of apoptosis measurement the caspase reagent was added 1:2 and incubated at RT for 30 min, the caspase activity (apoptosis) was measured as luminescence
(§2) EXAMPLE. Evaluation of Tetracyclic Pyrazinoindoles, and Pharmaceutically Acceptable Salts Thereof. One or more tetracyclic pyrazinoindoles are applied 2 and 24 hours before BSO treatment and are present throughout the assay. An optional reference compound, such as idebenone may be included for comparison. BSO treated cells without any treatment (BSO group) as well as cells neither treated with BSO nor with any treatment (Vehicle Control (VC) group) serve as controls. Cells are assessed for apoptosis, toxicity and viability immediately after BSO lesion by means of the ApoTox-Glo-assay Kit (Promega). Three independent experiments in four technical replicates are performed for all groups as depicted in Table 1 (different tetracyclic pyrazinoindoles are labeled as Test Items (T.I.1-T.I.2) and an optional positive control Reference Item 1 (R.I.1)):
(§3) BSO generally reduces a cell's protection against oxidative damage. Cells harvested from FRDA and LHON patients generate higher levels of ROS than normal cells. Apoptosis, toxicity and viability rate of cells are determined using the ApoTox-Glo-Kit (Promega): the reagent for assessing viability and toxicity is applied 1:5 into treatment medium and incubated for 30 min at 37° C. Next, fluorescence is measured at the following wavelength sets: 400EX/505EM (viability) and 485EX/520EM (toxicity). In case of apoptosis measurement the caspase reagent is added 1:2 and incubated at RT for 30 min, the caspase activity (apoptosis) was measured as luminescence
(§4) Descriptive statistical analysis was performed. Data are presented as mean±standard error of mean (SEM) in percent of vehicle control, MPP+ lesion and BSO lesion, respectively. Differences between compound-treated groups and controls (vehicle, BSO) are evaluated by means of One-Way ANOVA.
(§5) EXAMPLE. […] One vial is thawed and administered 2 and 24 hours before BSO treatment, at concentrations 0.6 μM, 1.8 μM, 5.5 μM and 16 μM. Apoptosis, toxicity and viability rate of cells are determined using the ApoTox-Glo-Kit (Promega). Human primary fibroblasts from patients suffering from Friedreich's ataxia are used. Three independent experiments in four technical replicates are performed for all groups. […] Statistical significance is indicated by NS=not significant p>0.1, *=p<0.05, **=p<0.01, ***=p<0.001 as determined by One-Way ANOVA. Data are shown as group mean+/−SEM.
(§6) EXAMPLE. Tetrindole is diluted in DMSO. One vial is thawed and administered 2 and 24 hours before BSO treatment, at concentrations 0.2 μM, 0.6 μM, 1.8 μM and 5.5 μM. Apoptosis, toxicity and viability rate of cells are determined using the ApoTox-Glo-Kit (Promega). Human primary fibroblasts from patients suffering from Friedreich's ataxia are used. Three independent experiments in four technical replicates are performed for all groups. […] Statistical significance is indicated by NS=not significant p>0.1, *=p<0.05, **=p<0.01, ***=p<0.001 as determined by One-Way ANOVA. Data are shown as group mean+/−SEM.

[3] = test system: human primary fibroblasts from patients suffering from LHON; test: cells
Method: as §1, §2, §3, §4
as §5, with “LHON” for “Friedreich's ataxia”
as §6, with “LHON” for “Friedreich's ataxia”

[4] = test system: YG8R FRDA mouse fibroblasts; test: FAC/BSO oxidative stress insult, cell viability (Presto Blue), YG8R fibroblasts; assay type: cell-based; conditions: FAC and 1 mM BSO 48 h
Method: (§7) EXAMPLE. Primary fibroblast and neuronal stem cell (NSC) cultures from the YG8R FRDA mouse model. The cell cultures are used as a rapid means to test the effectiveness of potential therapies before proceeding to longer-term FRDA mouse model investigations. A parallel assay using YG22R NSCs may be used.
(§8) YG8R fibroblasts and NSCs are treated with increasing concentrations of test compound, and a vehicle-only negative control. Optionally, YG8R fibroblasts and NSCs are treated with a positive control compound, such as 1 μM idebenone. Two hours after the initial treatment, cells are lesioned with […] FAC and 1 mM BSO for 48 hours. Cell viability is then determined using Presto Blue Cell Viability Reagent (Life Technologies) for 24 hours and subsequent colorimetric spectrophotometry. […] Similarly, 1.8 μM tetrindole restored the vehicle-treated FAC/BSO cell viability value of 26% to a value of 53% (p<0.001), relative to the vehicle treated non-insulted cell value as 100%.

[5] = test system: YG8R FRDA mouse neuronal stem cells (NSCs); test: FAC/BSO oxidative stress insult, cell viability (Presto Blue), YG8R NSCs; assay type: cell-based
Method: as §7, §8
Similarly, 1.8 μM tetrindole restored the vehicle-treated FAC/BSO cell viability value of 19% to a value of 40% (p<0.001), relative to the vehicle treated non-insulted cell value as 100%.

[6] = test system: reuptake of noradrenaline; test: Effect on reuptake of noradrenaline
[7] = test system: reuptake of 5-hydroxytryptamine; test: Effect on reuptake of 5-hydroxytryptamine
[8] = test system: dopaminergic system; test: Effect on the dopaminergic system
[9] = test system: cholinergic system; test: Effect on the cholinergic system
[10] = Absolute bioavailability; conditions: in vivo; species not given
[11] = Pharmacokinetics and distribution in the rat; assay type: in vivo
[12] = Pharmacokinetics in the dog; assay type: in vivo
[13] = test system: mice; conditions: mouse, in vivo, po
[14] = in vivo; conditions: mouse
[15] = in vivo; conditions: rat
[16] = too lipophillic; cannot reach the mitochondria (Edeas M. Pharm Res. 2011); cited from earlier work
[17] = Homo sapiens, Fibroblast, 48 h, read-out: protective effect in relative cell viability
[18] = rats, after oral and i.p. administration

Compound: C[C@@H]1C[C@H]2[C@@H]3CCC4=CC(=O)C=C[C@]4(C)[C@@]3(F)[C@@H](O)C[C@]2(C)[C@@]1(O)C(=O)CO [dexamethasone]
- Severity Score (infiltration by inflammatory cells) [1]: 1.45±1.09
- White Matter Damage (WMD) percentage (axonal degeneration) [1]: 24.4±33.3 percentage

Compound: Cc1ccc2c(c1)c1c3n2CCNC3CCC1 (stereo not drawn) [pirlindole, 2,3,3a,4,5,6-hexahydro-8-methyl-1H-pyrazino[3,2,1-j,k]carbazole]
- statistically significant overall cytotoxicity over BSO control [2]: not observed at any dose
- apoptosis (caspase activity) ([2]; 16 μM, only after the short incubation (2 h before lesion)): reduced apoptosis
- viability at 16 µM [2, 17]: 161%
- statistically significant improvement in apoptosis compared to the BSO group [2]: not observed at any dose
- statistically significant overall cytotoxicity over BSO control [3]: not observed at any dose
- apoptosis (caspase activity) ([3]; 16 μM, only significant after 24 h): reduced
- apoptosis compared to the BSO group ([3]; 5.5 dose): Statistically significant inferior apoptosis
- concentrations with protective effect or protective trend on cell viability ([3]; BSO lesion, pirlindole at both time points, tetrindole dose dependent protective trend): 16 µM
- viability at 16 µM [3, 17]: 122%
- protection against the oxidative stress insult [4]: significantly protect
- viability at 16 µM ([4]; Mus musculus, Fibroblast, 16 μM, vehicle-treated FAC/BSO value 26%, relative to vehicle treated non-insulted cells as 100%, p<0.001): 67%
- protection against the oxidative stress insult [5]: significantly protect
- viability at 5.5 µM ([5]; Mus musculus, 5.5 μM, vehicle-treated FAC/BSO value 19%, relative to vehicle treated non-insulted cells as 100%, p<0.001): 41%
- Severity Score (infiltration by inflammatory cells) [1]: 2.7±1.29
- White Matter Damage (WMD) percentage (axonal degeneration) [1]: 41±44.1 percentage
- effect on the reuptake of noradrenaline [6]: inhibitory effect
- effect on the reuptake of 5-hydroxytryptamine [7]: inhibitory effect
- effect on the dopaminergic system [8]: no effect
- effect on the cholinergic system [9]: no effect
- bioavailability [10]: 20 to 30%
- fraction eliminated ([11]; after 48 h): 80-85%
- Tmax ([11]; in vivo, rat, oral, approximately): 2 to 6 h
- second phase of elimination ([11]; rat): 35 to 70 h
- first phase of elimination ([11]; rat, approximately): approximately 8 h
- blood brain barrier (BBB) penetration [11, 18]: good blood brain barrier (BBB) penetration
- tissue distribution [11, 18]: distributed in the lungs, liver, kidneys, spleen and various glands (but only transiently in bone marrow)
- fraction eliminated ([11]; within 24 h): 40-60%
- first phase of elimination ([12]; dog, approximately): approximately 1.5 h
- second phase of elimination ([12]; dog, approximately): ~11 h
- third phase of elimination ([12]; dog, approximately): ~185 h
- Tmax ([12]; in vivo, dog, oral, approximately): 1 to 2 h
- blood levels versus dose ([12]; male and female dogs, repeated administration of three dose levels p.o. for one year): strictly dose-dependent
- maximal non-lethal dose [13]: approximately 300 mg/kg
- LD50 ([14]; iv): 70 to 80 mg/kg
- LD50 ([14]; po): 400 to 1000 mg/kg
- LD50 ([15]; iv): ~80 mg/kg
- LD50 ([15]; po): 2000 to 5000 mg/kg

Compound: c1cc2c(cc1C1CCCCC1)c1c3n2CCNC3CCC1 (stereo not drawn) [tetrindole, 2,3,3a,4,5,6-Hexahydro-8-cyclohexyl-1H-pyrazino[3,2,1-j,k]carbazole]
- viability at 1.8 µM [2, 17]: 156%
- statistically significant improvement in apoptosis compared to the BSO group [2]: not observed at any dose
- statistically significant overall cytotoxicity over BSO control ([2]; human): not observed at any dose, except the highest dose of 5.5
- statistically significant overall cytotoxicity over BSO control [3]: not observed at any dose
- viability at 1.8 µM [3, 17]: 122%
- statistically significant improvement in apoptosis compared to the BSO group ([3]; all tested doses): not observed at any dose
- statistically significant improvement in viability compared to the BSO group ([3]; all tested doses): not observed at any dose
- protection against the oxidative stress insult [4]: significantly protect
- viability at 1.8 µM ([4]; Mus musculus, Fibroblast, 1.8 μM, vehicle-treated FAC/BSO value 26%, relative to vehicle treated non-insulted cells as 100%, p<0.001): 53%
- protection against the oxidative stress insult [5]: significantly protect
- viability at 1.8 µM ([5]; Mus musculus, 1.8 μM, vehicle-treated FAC/BSO value 19%, relative to vehicle treated non-insulted cells as 100%, p<0.001): 40%

Compound: vitamin E
- permeation of cell membranes [16]: permeates cell membranes poorly
